Test results published in PMC11506774 (Biomolecules, 2024).
Values after ≈ are worked out from the molar mass of the structure shown.

Key:
[1] = system: Echo 30/WZ16; conditions: co-treatment, RD cells, 100 TCID50/50 µL, 24 h, crystal violet; mean ± SD, at least two independent experiments; >125 = protection less than 50% at 125 µg/mL; NO = no inhibition observed
[2] = system: Poliovirus 3/nOPV3; conditions: 24 h
[3] = system: EV-D68/BCH895A; conditions: co-treatment, RD cells, 100 TCID50/50 µL, 24 h, crystal violet; mean ± SD, at least two independent experiments; >125 = protection less than 50% at 125 µg/mL; NO = no inhibition observed
[4] = system: EV-A71/SZK2021; conditions: co-treatment, RD cells, 100 TCID50/50 µL, 24 h, crystal violet; mean ± SD, at least two independent experiments; NO = no inhibition observed
[5] = system: EV-A71/FY0805
[6] = system: RD cells; assay: Cytotoxicity assay (CCK-8); assay type: cell-based; conditions: 24 h, 2-fold dilutions from 1 mg/mL, CCK-8, absorbance 450 nm, mean ± SD, at least two independent experiments
Experimental: RD cells at a density of 4 × 10^4/100 µL/well were seeded in 96-well plates 24 h prior to the cytotoxicity assay. The peptide P25 and its derivatives were reconstituted in DMSO to a concentration of 25 mg/mL and then diluted to 1 mg/mL in DMEM with 100 mM HEPES, from which 2-fold serial dilutions of the peptides were produced, starting with the same medium. DMSO diluted in the same medium served as the control. Fifty microliters of diluted peptides and the control medium were added to the cells and cultured for 24 h. After cultivation, 5 µL of the enhanced CCK-8 reagent (Beyotime, C0043, Shanghai, China) were added directly to each well of the cell culture and cultured for an additional hour. Absorbance at 450 nm was detected using a TECAN Infinite 200 PRO instrument. The cell viability was normalized to the control, and the concentration at which a peptide inhibited 50% of the cell viability (CC50) was calculated using GraphPad Prism 9.5.1 (GraphPad software, San Diego, CA, USA).

CC[C@H](C)[C@H](NC(=O)[C@H](Cc1c[nH]cn1)NC(=O)[C@H](CCCCN)NC(=O)[C@@H]1CCCN1C(=O)[C@H](CCCCN)NC(=O)[C@H](CCSC)NC(=O)[C@H](Cc1ccc(O)cc1)NC(=O)[C@@H](NC(=O)[C@H](CCCNC(=N)N)NC(=O)[C@@H](NC(=O)[C@@H](NC(=O)[C@@H](NC(=O)[C@@H](NC(=O)[C@H](Cc1ccccc1)NC(=O)CN)[C@@H](C)O)C(C)C)[C@@H](C)O)C(C)C)C(C)C)C(=O)N[C@@H](CCCCN)C(=O)N[C@@H](C)C(=O)N[C@@H](Cc1c[nH]c2ccccc12)C(=O)N[C@@H](C)C(=O)O [Peptide P25]
IC50 (µg/mL) Echo 30 /WZ16 [1]: >125 µg/mL
IC50 (µg/mL) Poliovirus 3 /nOPV3 [2]: >125 µg/mL
IC50 (µg/mL) EV-D68 /BCH895A [3]: 57.56 ± 5.81 µg/mL
IC50 (µg/mL) EV-A71 /SZK2021 [4]: 41.32 ± 8.46 µg/mL
IC50 of P25 at 6 h of pre-treatment ([5]; 6 h): 3.9 µg/mL
IC50 (µg/mL) EV-A71 /FY0805 ([5]; 24 h): 32.35 ± 7.23 µg/mL (≈ 14.5 µM)
CC50 [6]: 256.43 ± 7.15 µg/mL (≈ 115 µM)
